Experiments:
[1] = target: full-length human PIKFYVE (Homo sapiens (Human), UniProt Q9Y2I7, L932S/Q1183K/Q995L/S1033A/S696N/T998S); test: PIKfyve biochemical assay (ADP-Glo Kinase assay, Carna Biosciences); conditions: ADP-Glo with full-length PIKfyve; read-out: PIKfyve IC50
FAB1 TDP-43 yeast strain = test: Propidium iodide flow cytometry viability assay, control FAB1 TDP-43 yeast strain; format: cell-based; conditions: 15 μM to 0.11 μM
Text: (§1) Generation of TDP-43 yeast model expressing human PIKfyve. Human PIKFYVE (“entry clone”) was cloned into pAG416GPDccdB (“destination vector”) according to standard Gateway cloning protocols (Invitrogen, Life Technologies). The resulting pAG416GPD-PIKFYVE plasmids were amplified in E. coli and plasmid identity confirmed by restriction digest and Sanger sequencing. Lithium acetate/polyethylene glycol-based transformation was used to introduce the above PIKFYVE plasmid into a BY4741 yeast strain auxotrophic for the ura3 gene and deleted for two transcription factors that regulate the xenobiotic efflux pumps, a major efflux pump, and FAB1, the yeast ortholog of PIKFYVE (MATa, snq2::KILeu2; pdr3::Klura3; pdr1::NATMX; fab1::G418R, his3; leu2; ura3; met15; LYS2+) (FIG. 2). Transformed yeast were plated on solid agar plates with complete synthetic media lacking uracil (CSM-ura) and containing 2% glucose. Individual colonies harboring the control or PIKFYVE TDP-43 plasmids were recovered. A plasmid containing wild-type TDP-43 under the transcriptional control of the GAL1 promoter and containing the hygromycin-resistance gene as a selectable marker was transformed into the fab/::G418R pAG416GPD-PIKFYVE yeast strain (FIG. 1). Transformed yeast were plated on CSM-ura containing 2% glucose and […] after overnight recovery in media lacking antibiotic. Multiple independent isolates were further evaluated for cytotoxicity and TDP-43 expression levels.
(§2) Viability Assay. A control yeast strain with the wild-type yeast FAB1 gene and TDP-43 (“FAB1 TDP-43”, carries empty pAG416 plasmid), and the “PIKFYVE TDP-43” yeast strain, were assessed for toxicity using a propidium iodide viability assay. Both yeast strains were transferred from solid CSM-ura/2% glucose agar plates into 3 mL of liquid CSM-ura/2% glucose media for 6-8 hours at 30° C. with aeration. Yeast cultures were then diluted to an optical density at 600 nm wavelength (OD600) of 0.005 in 3 mL of CSM-ura/2% raffinose and grown overnight at 30° C. with aeration to an OD600 of 0.3-0.8. Log-phase overnight cultures were diluted to OD600 of 0.005 in CSM-ura containing either 2% raffinose or galactose and 150 μL dispensed into each well of a flat bottom 96-well plates. Compounds formulated in 100% dimethyl sulfoxide (DMSO) were serially diluted in DMSO and 1.5 μL diluted compound transferred to the 96-well plates using a multichannel pipet. Wells containing DMSO alone were also evaluated as controls for compound effects. Tested concentrations ranged from 15 μM to 0.11 μM. Cultures were immediately mixed to ensure compound distribution and covered plates incubated at 30° C. for 24 hours in a stationary, humified incubator.
(§3) Upon the completion of incubation, cultures were assayed for viability using propidium iodide (PI) to stain for dead/dying cells. A working solution of PI was made where, for each plate, 1 μL of 10 mM PI was added to 10 mL of CSM-ura (raffinose or galactose). The final PI solution ([…]) was dispensed into each well of a new round bottom 96-well plate. The overnight 96-well assay plate was then mixed with a multichannel pipet and 50 μL transferred to the PI-containing plate. This plate was then incubated for 30 minutes at 30° C. in the dark. A benchtop flow cytometer (Miltenyi MACSquant) was then used to assess red fluorescence (B2 channel), forward scatter, and side scatter (with following settings: gentle mix, high flow rate, fast measurement, 10,000 events). Intensity histograms were then gated for “PI-positive” or “PI-negative” using the raffinose and galactose cultures treated with DMSO as controls. The DMSO controls for raffinose or galactose-containing cultures were used to determine the window of increased cell death and this difference set to 100. All compounds were similarly gated and then compared to this maximal window to establish the percent reduction in PI-positive cells.

[2] = system: PIKFYVE TDP-43 yeast strain; test: Propidium iodide flow cytometry viability assay, PIKFYVE TDP-43 yeast strain; format: cell-based; conditions: yeast viability, 15 μM to 0.11 μM
Text: as §1, §2, §3

Sequence of full-length human PIKFYVE (Q9Y2I7 whole entry S696N/L932S/Q995L/T998S/S1033A/Q1183K): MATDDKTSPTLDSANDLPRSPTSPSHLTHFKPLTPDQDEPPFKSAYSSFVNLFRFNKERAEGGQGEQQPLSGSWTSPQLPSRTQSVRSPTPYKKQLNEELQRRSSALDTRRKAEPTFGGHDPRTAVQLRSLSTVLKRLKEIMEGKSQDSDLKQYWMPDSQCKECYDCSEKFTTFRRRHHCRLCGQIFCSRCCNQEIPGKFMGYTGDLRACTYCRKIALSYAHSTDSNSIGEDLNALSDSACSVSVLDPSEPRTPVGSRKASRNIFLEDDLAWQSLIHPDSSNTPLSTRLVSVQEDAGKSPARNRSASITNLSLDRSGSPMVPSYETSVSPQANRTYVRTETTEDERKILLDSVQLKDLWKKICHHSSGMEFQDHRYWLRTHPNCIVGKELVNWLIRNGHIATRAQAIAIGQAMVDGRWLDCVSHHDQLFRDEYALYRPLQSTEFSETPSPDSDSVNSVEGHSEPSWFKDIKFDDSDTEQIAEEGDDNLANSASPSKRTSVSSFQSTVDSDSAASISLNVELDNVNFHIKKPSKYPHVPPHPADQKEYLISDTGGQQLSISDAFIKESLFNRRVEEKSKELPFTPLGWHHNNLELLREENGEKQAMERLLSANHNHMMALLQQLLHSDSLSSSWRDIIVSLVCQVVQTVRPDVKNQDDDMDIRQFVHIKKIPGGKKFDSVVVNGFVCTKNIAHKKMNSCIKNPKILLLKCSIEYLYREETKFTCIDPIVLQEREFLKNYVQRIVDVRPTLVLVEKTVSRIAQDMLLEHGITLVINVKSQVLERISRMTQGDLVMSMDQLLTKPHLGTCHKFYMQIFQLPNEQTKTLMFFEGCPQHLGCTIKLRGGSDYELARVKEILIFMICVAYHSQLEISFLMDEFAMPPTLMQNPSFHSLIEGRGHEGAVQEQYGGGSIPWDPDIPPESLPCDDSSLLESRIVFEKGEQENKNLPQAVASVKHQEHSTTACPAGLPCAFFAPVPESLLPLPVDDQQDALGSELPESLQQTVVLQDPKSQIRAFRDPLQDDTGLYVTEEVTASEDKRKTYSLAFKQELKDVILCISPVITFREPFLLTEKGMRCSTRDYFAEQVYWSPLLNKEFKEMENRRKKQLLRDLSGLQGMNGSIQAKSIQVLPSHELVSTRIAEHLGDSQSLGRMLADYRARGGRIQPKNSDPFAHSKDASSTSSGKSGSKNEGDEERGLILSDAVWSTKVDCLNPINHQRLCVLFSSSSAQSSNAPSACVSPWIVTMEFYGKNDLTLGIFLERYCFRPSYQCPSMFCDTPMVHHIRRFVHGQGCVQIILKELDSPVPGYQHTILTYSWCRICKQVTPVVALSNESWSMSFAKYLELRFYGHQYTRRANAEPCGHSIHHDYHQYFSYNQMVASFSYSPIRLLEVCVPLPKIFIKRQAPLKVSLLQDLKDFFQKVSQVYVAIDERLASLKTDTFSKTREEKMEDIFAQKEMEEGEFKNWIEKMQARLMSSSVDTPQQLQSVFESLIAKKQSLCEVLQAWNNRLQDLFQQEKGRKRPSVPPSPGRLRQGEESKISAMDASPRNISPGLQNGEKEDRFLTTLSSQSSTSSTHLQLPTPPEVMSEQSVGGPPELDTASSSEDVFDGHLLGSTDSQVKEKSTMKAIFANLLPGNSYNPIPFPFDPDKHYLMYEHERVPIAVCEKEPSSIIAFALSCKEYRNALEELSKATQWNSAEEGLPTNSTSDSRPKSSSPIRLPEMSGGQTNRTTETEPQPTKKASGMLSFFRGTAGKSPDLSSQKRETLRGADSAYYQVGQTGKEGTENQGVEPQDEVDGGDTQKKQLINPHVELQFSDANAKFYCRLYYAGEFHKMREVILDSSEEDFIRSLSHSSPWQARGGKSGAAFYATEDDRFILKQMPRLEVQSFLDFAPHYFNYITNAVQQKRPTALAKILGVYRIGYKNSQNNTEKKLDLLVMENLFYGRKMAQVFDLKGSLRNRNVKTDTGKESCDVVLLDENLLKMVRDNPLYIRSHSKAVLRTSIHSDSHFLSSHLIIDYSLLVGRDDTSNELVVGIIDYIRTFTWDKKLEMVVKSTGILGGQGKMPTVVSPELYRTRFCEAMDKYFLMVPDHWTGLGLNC

Row | Compound | IC50 [1] [nM] | FAB1 TDP-43 (active/inactive) (FAB1 TDP-43 yeast strain) | PIKfyve TDP-43 (active/inactive) [2]
1 | N#Cc1cc(N2CCOCC2)n2nc(-c3ccncc3)cc2n1 | > 10000 | Inactive | Inactive
2 | Cc1cccc(/C=N/Nc2cc(N3CCOCC3)nc(OCCc3ccc(CN)cc3)n2)c1 | 12 | Inactive | Active
3 | Cc1cccc(/C=N/Nc2cc(N3CCOCC3)n3nc(-c4ccncc4)cc3n2)c1 [drawing 163] | – | Inactive | Active
4 | Cc1cccc(/C=N/Nc2cc(N3CCOCC3)nc(OCCc3ccccn3)n2)c1 | – | Inactive | Inactive
5 | CN(C)c1cc(N2CCOCC2)n2nc(-c3ccncc3)cc2n1 | – | Inactive | Inactive

From patent US20240150358A1, “PURINES AND METHODS OF THEIR USE” (Kineta, Inc., priority 2020, published 2024)
